Test results published in patent US11142526B2, “Spirocycle compounds and methods of making and using same” (H. Lundbeck A/S, priority 2017, dated 2021).
Where two headings read alike, the source gives them in different places.

Key:
[1] = molecular target: MAGL (Homo sapiens (Human), UniProt Q99685); experiment: In vitro competitive activity-based protein profiling (gel-based, FP-Rh or HT-01 probe); format: biochemical
Protocol: In Vitro Competitive Activity-Based Protein Profiling.
Proteomes (human prefrontal cortex or cell membrane fractions) (50 μL, 1.0 mg/mL total protein concentration) were preincubated with varying concentrations of inhibitors at 37° C. After 30 min, FP-Rh or HT-01 (1.0 μL, 50 μM in DMSO) was added and the mixture was incubated for another 30 min at room temperature. Reactions were quenched with SDS loading buffer (15 μL—4×) and run on SDS-PAGE.

[2] = molecular target: MAGL (Mus musculus (Mouse), UniProt O35678); experiment: In vitro competitive activity-based protein profiling, mouse brain proteome; format: biochemical; conditions: for inhibition at 1 µM: mouse; for IC50: mouse brain
Sequence of MAGL (Mus musculus (Mouse), UniProt O35678) (O35678 whole entry): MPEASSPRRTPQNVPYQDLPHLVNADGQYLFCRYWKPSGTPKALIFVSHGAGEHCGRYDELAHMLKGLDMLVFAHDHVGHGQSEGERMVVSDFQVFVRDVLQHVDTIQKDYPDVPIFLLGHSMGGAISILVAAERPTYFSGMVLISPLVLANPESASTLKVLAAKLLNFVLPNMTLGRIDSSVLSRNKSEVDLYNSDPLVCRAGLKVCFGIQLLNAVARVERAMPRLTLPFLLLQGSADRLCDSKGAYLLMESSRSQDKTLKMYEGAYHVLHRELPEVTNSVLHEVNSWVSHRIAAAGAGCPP

[3] = human PC3, read-out: MAGL % Inhibition at 1 μM (human PC3)
[4] = human PFC (prefrontal cortex), read-out: MAGL % Inhibition at 1 μM (human PFC)
[5] = human PC3, read-out: MAGL Human PC3 (IC50)
[6] = human PFC (prefrontal cortex), read-out: MAGL Human PFC (IC50)

Sequence of MAGL (Homo sapiens (Human), UniProt Q99685) (Q99685 whole entry): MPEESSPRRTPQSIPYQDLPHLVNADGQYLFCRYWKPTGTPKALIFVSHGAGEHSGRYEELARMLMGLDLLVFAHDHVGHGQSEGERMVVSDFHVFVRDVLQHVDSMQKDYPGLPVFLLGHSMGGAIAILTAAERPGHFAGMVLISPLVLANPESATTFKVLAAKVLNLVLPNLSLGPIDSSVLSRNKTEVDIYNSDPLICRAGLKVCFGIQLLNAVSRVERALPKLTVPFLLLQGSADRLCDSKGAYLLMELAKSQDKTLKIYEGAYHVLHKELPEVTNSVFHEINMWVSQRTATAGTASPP

With `CC(C)N1CCn2c(nnc2C(=O)NC2(C)CCN(C(=O)OC(C(F)(F)F)C(F)(F)F)CC2)C1` [Example 36, 1,1,1,3,3,3-Hexafluoropropan-2-yl 4-(7-isopropyl-5,6,7,8-tetrahydro-[1,2,4]triazolo[4,3-a]pyrazine-3-carboxamido)-4-methylpiperidine-1-carboxylate] the inhibition at 1 µM [1, 3] was over 75%, the inhibition at 1 µM [1, 4] was over 75% and the IC50 [1, 5] was under 0.1 µM. For the same compound, the inhibition at 1 µM [2] was over 75%.
Work on `Cc1cccnc1C1(C(=O)N2CCCC23CCN(C(=O)OC(C(F)(F)F)C(F)(F)F)CC3)CC1` [Example 30, 1,1,1,3,3,3-Hexafluoropropan-2-yl 1-(1-(3-methylpyridin-2-yl)cyclopropane-1-carbonyl)-1,8-diazaspiro[4.5]decane-8-carboxylate] yielded an inhibition at 1 µM [1, 3] of over 75%, an inhibition at 1 µM [1, 4] of over 75% and an inhibition at 1 µM [2] of over 75%.
Compound `Cc1c(C(=O)N2CCCC23CCN(C(=O)OC(C(F)(F)F)C(F)(F)F)CC3)[nH]c2ccc(F)cc12` [Example 104, 1,1,1,3,3,3-Hexafluoropropan-2-yl 1-(5-fluoro-3-methyl-1H-indole-2-carbonyl)-1,8-diazaspiro[4.5]decane-8-carboxylate] has an IC50 [1, 5] of under 0.1 µM, an inhibition at 1 µM [2] of over 75% and an IC50 [2] of under 0.1 µM.
In the case of `O=C(OC(C(F)(F)F)C(F)(F)F)N1CCC2(CCCN2C(=O)c2ccc3scnc3c2)CC1` [Example 86, 1,1,1,3,3.3-Hexafluoropropan-2-yl 1-(benzo[d]thiazole-5-carbonyl)-1,8-diazaspiro[4.5] decane-8-carboxylate], the IC50 [1, 5] is reported as under 0.1 µM, the inhibition at 1 µM [2] is reported as over 75% and the IC50 [2] is reported as under 0.1 µM.
For `COc1cnc(C(F)(F)C(=O)N(C)C2(C)CCN(C(=O)OC(C(F)(F)F)C(F)(F)F)CC2)cn1` [Example 199, 1,1,1,3,3,3-Hexafluoropropan-2-yl 4-(2,2-difluoro-2-(5-methoxypyrazin-2-yl)-N-methylacetamido)-4-methylpiperidine-1-carboxylate], the inhibition at 1 µM [1, 3] was over 75%, the inhibition at 1 µM [1, 4] was over 75% and the IC50 [1, 6] was under 0.1 µM. The inhibition at 1 µM [2] was over 75%.
`O=C(OC(C(F)(F)F)C(F)(F)F)N1CCC2(CCCN2C(=O)c2cn3ccncc3n2)CC1` [Example 159, 1,1,1,3,3,3-Hexafluoropropan-2-yl 1-(imidazo[1,2-a]pyrazine-2-carbonyl)-1,8-diazaspiro[4.5] decane-8-carboxylate] showed an inhibition at 1 µM [1, 4] of over 75%, an IC50 [1, 5] of under 0.1 µM and an inhibition at 1 µM [2] of over 75%.
`O=C(OC(C(F)(F)F)C(F)(F)F)N1CCC2(CCCN2C(=O)c2cc3nc(C4CC4)cc(C(F)F)n3n2)CC1` [Example 167, 1.1,1,3,3,3-Hexafluoropropan-2-yl 1-(5-cyclopropyl-7-(difluoromethyl)pyrazolo[1,5-a]pyrimidine-2-carbonyl)-1,8-diazaspiro[4.5] decane-8-carboxylate] showed an inhibition at 1 µM [1, 3] of over 75%, an inhibition at 1 µM [1, 4] of over 75% and an inhibition at 1 µM [2] of over 75%.
Work on `O=C(O)C1CCN(c2ncccc2CN2CCCC23CCN(C(=O)OC(C(F)(F)F)C(F)(F)F)CC3)CC1` [Example 124, 1-(3-((8-(((1,1,1,3,3,3-HexafIuoropropan-2-yl)oxy)carbonyl)-1,8-diazaspiro[4.5]decan-1-yl)methyl)pyridin-2-yl)piperidine-4-carboxylic acid] yielded an inhibition at 1 µM [1, 4] of 25 to 75% and an inhibition at 1 µM [2] of over 75%.
For `O=C(OC(C(F)(F)F)C(F)(F)F)N1CCC2(CCCN2Cc2cnc(N3CCNCC3)s2)CC1` [Example 4, 1,1,1,3,3,3-hexafluoropropan-2-yl 1-((2-(piperazin-1-yl)thiazol-5-yl)methyl)-1,8-diazaspiro[4.5]decane-8-carboxylate], the inhibition at 1 µM [1, 4] was over 75%, the IC50 [1, 5] was under 0.1 µM and the inhibition at 1 µM [2] was over 75%.
With `Cc1nc(C)c(C(=O)N2CCCC23CCN(C(=O)OC(C(F)(F)F)C(F)(F)F)CC3)o1` [Example 128, 1,1,1,3,3,3-Hexafluoropropan-2-yl 1-(2,4-dimethyloxazole-5-carbonyl)-1,8-diazaspiro[4.5] decane-8-carboxylate] the inhibition at 1 µM [1, 4] was over 75%, the IC50 [1, 5] was under 0.1 µM and the inhibition at 1 µM [2] was over 75%.
For `CCC(C)(C)C(=O)N1CCn2cc(C(=O)NC3(C)CCN(C(=O)OC(C(F)(F)F)C(F)(F)F)CC3)nc2C1` [Example 193, 1,1,1,3,3,3-Hexafluoropropan-2-yl 4-(7-(2,2-dimethylbutanoyl)-5,6,7,8-tetrahydroimidazo[1,2-a]pyrazine-2-carboxamido)-4-methylpiperidine-1-carboxylate], the inhibition at 1 µM [1, 3] was over 75%, the IC50 [1, 5] was under 0.1 µM and the inhibition at 1 µM [2] was over 75%.
Compound `O=C(O)CN1CCn2cc(C(=O)N3CCCC34CCN(C(=O)OC(C(F)(F)F)C(F)(F)F)CC4)nc2C1` [Example 158, 2-(2-(8-(((1,1,1,3,3,3-Hexafluoropropan-2-yl)oxy)carbonyl)-1,8-diazaspiro[4.5]decane-1-carbonyl)-5,6-dihydroimidazo[1,2-a]pyrazin-7(8H)-yl) acetic acid] has an inhibition at 1 µM [1, 3] of over 75%, an inhibition at 1 µM [1, 4] of over 75% and an inhibition at 1 µM [2] of 25 to 75%.
Work on `O=C(OC(C(F)(F)F)C(F)(F)F)N1CCC2(CCCN2C(=O)c2nc3ccccc3s2)CC1` [Example 75, 1,1,1,3,3,3-Hexafluoropropan-2-yl 1-(benzo[d]thiazole-2-carbonyl)-1,8-diazaspiro[4.5] decane-8-carboxylate] yielded an IC50 [1, 5] of under 0.1 µM, an inhibition at 1 µM [2] of over 75% and an IC50 [2] of under 0.1 µM.
In the case of `CN(C(=O)c1cnc2cccnn12)C1(C)CCN(C(=O)OC(C(F)(F)F)C(F)(F)F)CC1` [Example 168, 1,1,1,3,3,3-Hexafluoropropan-2-yl 4-methyl-4-(N-methylimidazo[1,2-b]pyridazine-3-carboxamido) piperidine-1-carboxylate], the inhibition at 1 µM [1, 3] is reported as over 75%, the inhibition at 1 µM [1, 4] is reported as over 75% and the IC50 [1, 5] is reported as under 0.1 µM. It also gave an inhibition at 1 µM [2] of over 75%.
In the case of `O=C(O)Cn1cc(CN2CCCC23CCN(C(=O)OC(C(F)(F)F)C(F)(F)F)CC3)c(-c2cccc(Cl)c2)n1` [Example 118, 2-(3-(3-Chlorophenyl)-4-((8-(((1,1,1,3,3,3-hexafluoropropan-2-yl)oxy)carbonyl)-1,8-diazaspiro[4.5]decan-1-yl)methyl)-1H-pyrazol-1-yl)acetic acid], the inhibition at 1 µM [1, 4] is reported as over 75%, the IC50 [1, 5] is reported as under 0.1 µM and the inhibition at 1 µM [2] is reported as over 75%.
For `O=C(OC(C(F)(F)F)C(F)(F)F)N1CCC2(CCCN2C(=O)c2cc3cccc(F)c3s2)CC1` [Example 96, 1,1,1,3,3,3-Hexafluoropropan-2-yl 1-(7-fluorobenzo[b]thiophene-2-carbonyl)-1,8-diazaspiro[4.5] decane-8-carboxylate], the IC50 [1, 5] was under 0.1 µM, the IC50 [1, 6] was under 0.1 µM and the inhibition at 1 µM [2] was over 75%. It also gave an IC50 [2] of under 0.1 µM.
`CCN(C(=O)c1cn2c(n1)CN(C1CC1)CC2)C1(C)CCN(C(=O)OC(C(F)(F)F)C(F)(F)F)CC1` [Example 178, 1,1,1,3,3,3-Hexafluoropropan-2-yl 4-(7-cyclopropyl-N-ethyl-5,6,7,8-tetrahydroimidazo [1,2-a]pyrazine-2-carboxamido)-4-methylpiperidine-1-carboxylate] gave an inhibition at 1 µM [1, 3] of over 75%, an inhibition at 1 µM [1, 4] of over 75% and an inhibition at 1 µM [2] of over 75%.
Compound `CC(C)n1cc(CN2CCC3(CCN(C(=O)OC(C(F)(F)F)C(F)(F)F)CC3)C2)c(-c2cccc(C(=O)O)c2)n1` [Example 113, 3-(4-((8-(((1,1,1,3,3,3-Hexafluoropropan-2-yl)oxy)carbonyl)-2,8-diazaspiro[4.5]decan-2-yl)methyl)-1-isopropyl-1H-pyrazol-3-yl) benzoic acid] has an inhibition at 1 µM [1, 4] of 25 to 75% and an inhibition at 1 µM [2] of 25 to 75%.
With `O=C(OC(C(F)(F)F)C(F)(F)F)N1CCC2(CCCN2Cc2ccc3cccc(Cl)c3n2)CC1` [Example 57, 1,1,1,3,3,3-Hexafluoropropan-2-yl 1-((8-chloroquinolin-2-yl)methyl)-1,8-diazaspiro[4.5] decane-8-carboxylate] the IC50 [1, 5] was under 0.1 µM, the inhibition at 1 µM [2] was over 75% and the IC50 [2] was under 0.1 µM.
In the case of `O=C(OC(C(F)(F)F)C(F)(F)F)N1CCC2(CCCN2C(=O)Cc2ncccn2)CC1` [Example 195, 1,1,1,3,3,3-Hexafluoropropan-2-yl 1-(2-(pyrimidin-2-yl)acetyl)-1,8-diazaspiro[4.5] decane-8-carboxylate], the inhibition at 1 µM [1, 3] is reported as over 75%, the inhibition at 1 µM [1, 4] is reported as over 75% and the inhibition at 1 µM [2] is reported as under 25%.
Work on `Cc1ncncc1C(=O)N1CCCC12CCN(C(=O)OC(C(F)(F)F)C(F)(F)F)CC2` [Example 127, 1,1,1,3,3,3-Hexafluoropropan-2-yl 1-(4-methyl-pyrimidine-5-carbonyl)-1,8-diazaspiro[4.5] decane-8-carboxylate] yielded an inhibition at 1 µM [1, 4] of 25 to 75% and an inhibition at 1 µM [2] of under 25%.
`CN(C(=O)C(F)(F)c1cnccn1)C1(C)CCN(C(=O)OC(C(F)(F)F)C(F)(F)F)CC1` [Example 198, 1,1,1,3,3,3-Hexafluoropropan-2-yl 4-(2,2-difluoro-N-methyl-2-(pyrazin-2-yl)acetamido)-4-methylpiperidine-1-carboxylate] showed an inhibition at 1 µM [1, 3] of over 75%, an inhibition at 1 µM [1, 4] of over 75% and an inhibition at 1 µM [2] of over 75%.
For `Cn1cc(Cl)c(CN2CCCC23CCN(C(=O)OC(C(F)(F)F)C(F)(F)F)CC3)n1` [Example 133, 1,1,1,3,3.3-Hexafluoropropan-2-yl 1-((4-chloro-1-methyl-1H-pyrazol-3-yl)methyl)-1,8-diazaspiro[4.5] decane-8-carboxylate], the inhibition at 1 µM [1, 4] was over 75%, the IC50 [1, 5] was under 0.1 µM and the inhibition at 1 µM [2] was over 75%.
`Cc1nn(C)c(C(=O)N2CCCC23CCN(C(=O)OC(C(F)(F)F)C(F)(F)F)CC3)c1C#N` [Example 19, 1,1,1,3,3,3-hexafluoropropan-2-yl 1-(4-cyano-1,3-dimethyl-1H-pyrazole-5-carbonyl)-1,8-diazaspiro[4.5]decane-8-carboxylate] gave an inhibition at 1 µM [1, 4] of over 75% and an inhibition at 1 µM [2] of over 75%.
